Measured values published in article PMC12038006, “Structure and mechanism of a mycobacterial isoniazid efflux pump MsRv1273c/72c with a degenerate nucleotide-binding site” (Nature Communications, 2025).

Molecular target: T1, MsRv1273c/72c (Mycolicibacterium smegmatis, UniProt A0R271+A0R272)
T1 construct: gene MSMEG_5008
Type: binding

T1 sequence (A0R272 entry or part of it): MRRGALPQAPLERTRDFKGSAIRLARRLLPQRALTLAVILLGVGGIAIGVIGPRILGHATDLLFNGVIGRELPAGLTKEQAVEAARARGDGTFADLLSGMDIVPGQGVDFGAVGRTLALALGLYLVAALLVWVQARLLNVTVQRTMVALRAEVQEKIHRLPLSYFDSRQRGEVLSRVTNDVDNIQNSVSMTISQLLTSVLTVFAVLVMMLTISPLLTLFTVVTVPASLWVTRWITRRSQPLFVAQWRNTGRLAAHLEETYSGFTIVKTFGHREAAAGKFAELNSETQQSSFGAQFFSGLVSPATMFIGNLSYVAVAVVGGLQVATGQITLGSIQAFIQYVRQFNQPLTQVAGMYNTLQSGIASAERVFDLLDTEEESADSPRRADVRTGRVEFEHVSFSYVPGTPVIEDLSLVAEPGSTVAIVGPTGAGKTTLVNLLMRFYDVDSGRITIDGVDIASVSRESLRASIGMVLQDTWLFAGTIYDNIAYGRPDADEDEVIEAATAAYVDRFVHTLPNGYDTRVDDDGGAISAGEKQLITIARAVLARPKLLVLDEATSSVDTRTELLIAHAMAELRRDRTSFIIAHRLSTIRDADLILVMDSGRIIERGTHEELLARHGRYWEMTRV
T1 sequence (A0R271 entry or part of it): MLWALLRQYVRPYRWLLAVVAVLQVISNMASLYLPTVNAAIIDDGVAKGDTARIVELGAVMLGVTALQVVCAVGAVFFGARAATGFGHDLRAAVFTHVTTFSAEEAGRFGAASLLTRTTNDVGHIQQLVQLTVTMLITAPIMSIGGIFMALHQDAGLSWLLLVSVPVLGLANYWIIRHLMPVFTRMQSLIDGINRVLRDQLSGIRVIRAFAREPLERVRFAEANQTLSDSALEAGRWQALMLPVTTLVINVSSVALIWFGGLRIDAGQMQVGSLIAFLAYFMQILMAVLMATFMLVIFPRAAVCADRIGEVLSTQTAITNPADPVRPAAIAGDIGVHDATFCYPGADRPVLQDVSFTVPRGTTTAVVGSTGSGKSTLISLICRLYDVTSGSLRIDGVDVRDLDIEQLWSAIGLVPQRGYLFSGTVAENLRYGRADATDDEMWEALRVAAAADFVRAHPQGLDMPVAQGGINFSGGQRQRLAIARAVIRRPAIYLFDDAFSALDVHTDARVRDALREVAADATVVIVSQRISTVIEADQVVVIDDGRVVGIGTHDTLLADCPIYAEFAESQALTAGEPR

SMILES	cryo-EM structure
Nc1ncnc2c1ncn2[C@@H]1O[C@H](COP(=O)(O)OP(=O)(O)O)[C@@H](O)[C@H]1O [ADP]	In this structure, ADP binds at the consensus site
Nc1ncnc2c1ncn2[C@@H]1O[C@H](COP(=O)(O)OP(=O)(O)NP(=O)(O)O)[C@@H](O)[C@H]1O [AMPPNP]	Though both NBSs bind AMPPNP, the NBDs are partially dimerized at the degenerate site
Nc1ncnc2c1ncn2[C@@H]1O[C@H](COP(=O)(O)OP(=O)(O)OP(=O)(O)O)[C@@H](O)[C@H]1O [ATP]	the degenerate site is bound with an ATP, which has not been hydrolyzed
